Test results as given in the supplement of paper PMC10307832.

Key:
Assay in all cases: relative viability (nuclei count vs DMSO), 5 days (fraction); higher = more cells survive
VX-11e + Alpelisib = compound: CC1=CN=C(N=C1C2=CNC(=C2)C(=O)N[C@H](CO)C3=CC(=CC=C3)Cl)NC4=C(C=C(C=C4)F)Cl [VX-11e] + Cc1nc(NC(=O)N2CCC[C@H]2C(N)=O)sc1-c1ccnc(C(C)(C)C(F)(F)F)c1 [Alpelisib] (partner 2 µM)
Method in brief: (§1)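 Dosing by pin tool came one day after lung cancer cell lines were seeded in 1536-well plates, using either one drug or a fixed anchor-drug dose plus five library-drug doses (not always all listed) in √10 steps. After 5 days, nuclei were counted on 4× images. Relative viability is treated-well nuclei count divided by vehicle-well nuclei count, and values are medians of duplicate plates.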

VX-11e + Pictilisib = compound: CC1=CN=C(N=C1C2=CNC(=C2)C(=O)N[C@H](CO)C3=CC(=CC=C3)Cl)NC4=C(C=C(C=C4)F)Cl [VX-11e] + CS(=O)(=O)N1CCN(Cc2cc3nc(-c4cccc5[nH]ncc45)nc(N4CCOCC4)c3s2)CC1 [Pictilisib] (partner 1 µM)
Method in brief: as §1

VX-11e + AZD7762 = compound: CC1=CN=C(N=C1C2=CNC(=C2)C(=O)N[C@H](CO)C3=CC(=CC=C3)Cl)NC4=C(C=C(C=C4)F)Cl [VX-11e] + NC(=O)Nc1cc(-c2cccc(F)c2)sc1C(=O)N[C@H]1CCCNC1 [AZD7762] (partner 0.2 µM)
Method in brief: as §1

VX-11e + Phenformin = compound: CC1=CN=C(N=C1C2=CNC(=C2)C(=O)N[C@H](CO)C3=CC(=CC=C3)Cl)NC4=C(C=C(C=C4)F)Cl [VX-11e] + N=C(N)NC(=N)NCCc1ccccc1 [Phenformin] (partner 250 µM)
Method in brief: as §1

| Cell Line | relative viability (VX-11e + Alpelisib; first compound 0.04 µM) | relative viability (VX-11e + Alpelisib; first compound 0.1265 µM) | relative viability (VX-11e + Alpelisib; first compound 0.4 µM) | relative viability (VX-11e + Alpelisib; first compound 1.265 µM) | relative viability (VX-11e + Alpelisib; first compound 4 µM) | relative viability (VX-11e + Pictilisib; first compound 0.04 µM) | relative viability (VX-11e + Pictilisib; first compound 0.1265 µM) | relative viability (VX-11e + Pictilisib; first compound 0.4 µM) | relative viability (VX-11e + Pictilisib; first compound 1.265 µM) | relative viability (VX-11e + Pictilisib; first compound 4 µM) | relative viability (VX-11e + AZD7762; first compound 0.04 µM) | relative viability (VX-11e + AZD7762; first compound 0.1265 µM) | relative viability (VX-11e + AZD7762; first compound 0.4 µM) | relative viability (VX-11e + AZD7762; first compound 1.265 µM) | relative viability (VX-11e + AZD7762; first compound 4 µM) | relative viability (VX-11e + Phenformin; first compound 0.04 µM) | relative viability (VX-11e + Phenformin; first compound 0.1265 µM) | relative viability (VX-11e + Phenformin; first compound 0.4 µM) | relative viability (VX-11e + Phenformin; first compound 1.265 µM) | relative viability (VX-11e + Phenformin; first compound 4 µM) |
| --- | --- | --- | --- | --- | --- | --- | --- | --- | --- | --- | --- | --- | --- | --- | --- | --- | --- | --- | --- | --- |
| NCI-H727 | 0.432 | 0.497 | 0.438 | 0.333 | 0.254 | 0.243 | 0.451 | 0.314 | 0.238 | 0.173 | 0.519 | 0.616 | 0.652 | 0.476 | 0.385 | 0.439 | 0.475 | 0.451 | 0.359 | 0.353 |
| NCI-H838 | 1.06 | 0.989 | 0.952 | 1.02 | 0.824 | 0.333 | 0.435 | 0.266 | 0.424 | 0.292 | 0.784 | 0.962 | 0.728 | 0.977 | 0.834 | 0.539 | 0.604 | 0.17 | 0.445 | 0.379 |
| NCI-H1355 | 0.725 | 0.687 | 0.88 | 0.572 | 0.302 | 0.263 | 0.194 | 0.166 | 0.3 | 0.232 | 0.757 | 0.695 | 0.45 | 0.615 | 0.368 | 0.417 | 0.435 | 0.34 | 0.379 | 0.348 |
| NCI-H1395 | 1.08 | 0.916 | 0.745 | 1.04 | 0.675 | 0.682 | 0.551 | 0.501 | 0.59 | 0.435 | 0.377 | 0.394 |  | 0.385 | 0.365 | 0.42 | 0.405 | 0.453 | 0.461 | 0.398 |
| NCI-H1437 | 0.996 | 0.869 | 0.891 | 0.642 | 0.247 | 0.36 | 0.281 | 0.356 | 0.163 | 0.124 | 1.11 | 1.09 | 0.867 | 0.972 | 0.741 | 0.334 | 0.257 | 0.226 | 0.297 | 0.225 |
| NCI-H1651 | 0.955 | 0.882 | 1 | 0.735 | 0.705 | 0.494 | 0.519 | 0.504 | 0.548 | 0.536 | 0.331 | 0.399 | 0.464 | 0.47 | 0.377 | 0.347 | 0.301 | 0.23 | 0.314 | 0.305 |
| NCI-H1666 | 0.706 | 1.01 | 0.8 | 0.461 | 0.333 | 0.511 | 0.406 | 0.367 | 0.336 | 0.294 | 0.803 | 0.832 | 0.715 | 0.732 | 0.699 | 0.556 | 0.554 | 0.478 | 0.569 | 0.503 |
| NCI-H1734 | 0.689 | 0.691 | 0.648 | 0.674 | 0.41 | 0.358 | 0.39 | 0.376 | 0.31 | 0.245 | 0.525 | 0.532 | 0.307 | 0.334 | 0.296 | 0.369 | 0.391 | 0.323 | 0.231 | 0.209 |
| NCI-H1755 | 0.962 | 0.885 | 0.882 | 0.931 | 0.497 | 0.397 | 0.337 | 0.152 | 0.357 | 0.16 | 0.434 | 0.333 | 0.341 | 0.513 | 0.359 | 0.694 | 0.542 | 0.248 | 0.594 | 0.51 |
| NCI-H1792 | 0.799 | 0.631 | 0.649 | 0.628 | 0.202 | 0.299 | 0.2 | 0.319 | 0.27 | 0.0521 |  | 0.623 |  | 0.413 | 0.0597 | 0.151 | 0.386 | 0.137 | 0.0901 | 0.038 |
| NCI-H1793 |  | 0.519 |  | 0.539 | 0.301 |  | 0.329 |  | 0.273 | 0.232 |  | 0.361 |  | 0.516 | 0.191 | 0.372 | 0.314 |  | 0.34 | 0.245 |
| NCI-H1915 | 1.08 | 0.973 | 1.08 | 0.978 | 0.652 | 0.556 | 0.757 | 0.636 | 0.627 | 0.282 | 0.719 | 0.719 | 0.596 | 0.791 | 0.554 | 0.401 | 0.343 | 0.291 | 0.298 | 0.235 |
| NCI-H1944 | 0.843 | 0.809 | 0.785 | 0.557 | 0.399 | 0.301 | 0.308 | 0.306 | 0.309 | 0.281 | 0.513 | 0.522 | 0.255 | 0.449 | 0.37 | 0.194 | 0.193 |  | 0.218 | 0.168 |
| NCI-H1975 | 0.649 | 0.639 | 0.591 | 0.508 | 0.191 | 0.237 | 0.278 | 0.2 | 0.222 | 0.202 | 0.657 | 0.721 | 0.562 | 0.57 | 0.378 | 0.443 | 0.362 | 0.261 | 0.393 | 0.199 |
| NCI-H1993 |  | 0.673 |  | 0.618 | 0.649 |  | 0.805 |  | 0.814 | 0.865 |  | 0.884 | 0.687 | 0.453 | 0.48 | 0.547 | 0.49 | 0.484 | 0.517 | 0.518 |
| NCI-H2085 | 1.11 | 0.88 | 0.913 | 0.842 | 0.699 | 0.361 | 0.51 | 0.441 | 0.452 | 0.357 | 0.853 | 0.975 | 0.829 | 0.887 | 0.642 | 0.6 | 0.707 | 0.641 | 0.449 | 0.425 |
| NCI-H2087 | 1.09 | 1.06 | 0.946 | 0.983 | 0.276 | 0.778 | 0.734 | 0.271 | 0.445 | 0.273 | 1.51 | 1.37 |  | 1.24 | 0.583 | 0.459 | 0.462 |  | 0.393 | 0.181 |
